Assay results from patent US20160331716A1, “MOLECULAR TARGETS FOR HEALING OR TREATING WOUNDS” (UNIVERSITY COLLEGE CARDIFF CONSULTANTS LIMITED, priority 2011, published 2016).

Tests used:
[1] = Tolerance in db/db during wound healing study; assay type: in vivo, mice; settings: systemic, every other day, two week period
Method: (§1) The first tolerance test was conducted on the CD-1 athymic (Charles River Laboratories). Briefly, CD-1 of 4-6 weeks old, 20 g in weight, were housed in filter topped cages. Sodium stibogluconate a known PTPRK inhibitor was injected, via the intraperitoneal route, on a daily basis. The compound was given at 100 final concentration (equivalent to ˜10 mg/kg body weight) in 100 ul in volume. CD-1 were observed daily, weighed twice weekly. An additional tolerance and efficacy test was carried out using the db/db strain.
(§2) The diabetic strain of db/db was obtained from Harlan. 4-6 weeks old with body weight at 20 g were used. Creation of a wound was according to a recently described method. Briefly, after being housed for a week, the db/db were first ear-pieced using an puncher, in order to create a wound (hole) of 1 mm in diameter. The following day after wound creation, all the db/db were weighed and the wound was photographed using a digital camera. Treatment was given systemically (by IP injection) or topically (by manually applying the compound in gel into the wound area). Both treatments were given every other day, twice weekly or weekly. Images were obtained weekly. The size of the wounds was determined using an image analysis software and is shown here as the area in pixels.
Formulation of the Compounds. • 1. For systemic application, Sodium stibogluconate was dissolved in BSS and diluted in the same for the required concentration. The solutions were prepared that each 100 ul contained the correct amount of compounds and was aliquatted and stored as such at −20° C. until used. The compound was injected every other day by the IP route. • 2. For topical application, we used two carrier gels that are currently used in wound care, namely Bactroban and Aquagel. From the concentrated master stock of Sodium stibogluconate, 100 ul of the stock solution was mixed with 2 grams of the respective gels, followed by low speed homogenisation using a hand held homogeniser, for 2 minutes. […]

[2] = In vivo tolerance test in CD-1 athymic; settings: intraperitoneal, daily, ~10 mg/kg body weight
Method: as §1
as §1, with “conducted” for “conducted on”, “stibogluconate” for “stibogluconate a known PTPRK inhibitor”, “10” for “˜10”

HECV cells = test: ECIS cell adhesion assay, HECV endothelial cells; assay type: cell-based, human
Method: HaCaT, a human keratinocyte cell line was purchased from the German Cancer Centre, HECV, a human vascular endothelial cells from Interlab, Milan, Italy, DB/DB mice from Harlan UK.
HaCaT and HECV cells, which were positive for PTPRK, were transfected with anti-PTPRK transgenes by way of electroporation (270 v). After selection with a selection medium (DMEM with 10 ug/ml blasticidin) for 10 days, clones of selected cells were pooled and used for subsequent analysis.
(§3) Three models of ECIS instrument were used: ECIS 9600 for screening and ECIS1600R and ECIS Z8 for modelling. In all systems, 8W10 arrays were used (Applied Biophysics Inc., Troy, N.Y., USA) (Giaever and Keese 1991, Kees et al 2004). Following treating the array surface with a Cysteine solution (or array stabilization procedure for ECIS Z8), the arrays were incubated with complete medium for 1 hr Electric changes were continuously monitored for up to 24 hrs. In the 9600 system, the monitoring was at fixed […]. In the 1600R and ECIS Zθ systems, cells were monitored at 62.5, 125, 250, 500, 1,000, 2,000, 4,000, 8,000, 16,000, 32,000 and 64,000 Hz. The adhesion was analysed by the integrated Rb modelling method.

HaCaT cells = test: ECIS wounding (migration) assay, HaCaT keratinocytes; assay type: cell-based, human; settings: over a range of concentrations
Method: as §3
Using the ECIS Theta96 model, we tested the response of cells to stibugluconate over a range of concentrations. HaCaT cells responded over the range of concentrations tested in that there was an increase in cell adhesion between 0.16-20 uM with 20 uM showing the maximum effects, FIGS. 5 & 6. Likewise, the cells also responded to stibogluconate by increasing their migration from concentrations as low as 160 nM to 100 uM, FIGS. 7, 8 & 9.

db/db mice = test: In vivo efficacy test, ear-punch wound healing in diabetic db/db; settings: for rate of wound healing: 2-100 mg/ml
Text: as §2
Formulation of the Compounds. • 1. For systemic application, Sodium stibogluconate was dissolved in BSS and diluted in the same for the required concentration. The solutions were prepared that each 100 ul contained the correct amount of compounds and was aliquatted and stored as such at −20° C. until used. The compound was injected every other day by the IP route. • 2. For topical application, we used two carrier gels that are currently used in wound care, namely Bactroban and Aquagel. From the concentrated master stock of Sodium stibogluconate, 100 ul of the stock solution was mixed with 2 grams of the respective gels, followed by low speed homogenisation using a hand held homogeniser, for 2 minutes. […] For use, small amount (150 ul) of the gel was applied to the wound area and gently rubbed in using fingers. • 3. […] Sodium stibogluconate increased the rate of wound healing without producing any side effects. • Sodium stibogluconate was given systemically, at 100 uM.
Using the same db/db mice, we further tested the possible dose response by applying stibogluconate at 2 mg/ml. 20 mg/ml and 100 mg/ml, using topical applications. At the same time, we tested two treatment methods: applying the agent on a weekly basis or twice weekly basis. We determined the size of the wound on a weekly basis. […] Using a Two-way ANOVA (Holm-Sidak model), it was shown that in both treatment regimes, there was a highly significant difference between the treatment group and control group, p=0.013, […] and 0.009, control vs 2 mg/ml, 20 mg/ml and 100 mg respectively, for the twice weekly treatment, and p=0.05, 0.013, 0.009 for the weekly treatment group.

In the case of O.O.O.O.O.O.O.O.O.O=C([O-])[C@@H]1[O][Sb]2([O-])([O][Sb]34([OH])[O][C@H]([C@H](O)CO)[C@H]([O]3)[C@H](C(=O)[O-])[O]4)[O][C@H]([C@H](O)CO)[C@@H]1[O]2.[Na+].[Na+].[Na+] [stibogluconate, Sodium stibogluconate], the side effects [1] is reported as “did not observe any side effects”, the tolerance [1] is reported as “well tolerated” and the weight loss [1] is reported as “no weight loss”. The tolerance in vivo [2] was “Well Tolerated”, the “cell adhesion to the surface of the electrode (ECIS)” value (HECV cells; HECV/WT treated with stibogluconate) was “rapid adhesion” and the “response to stibogluconate of HECV/PTPRKrib cells compared with HECV/WT” value (HECV cells; PTPRK knock-down cells, ECIS adhesion) was “markedly reduced”. For the same compound, the “effect on the migration of the cells (keratinocytes)” value (HaCaT cells) was “concentration dependent effect”, the “wound size versus control group” value (db/db mice; systemic (IP) at 100 uM, after one week) was “smaller than the control group” and the “twice weekly versus weekly administration, rate of wound healing” value (db/db mice; topical) was “marginally more effective”. The “rate of wound healing” value (db/db mice; topical, twice weekly application) was “rapid rate of wound healing”, the “rate of wound healing” value (db/db mice; topical, weekly application) was “rapid rate of wound healing” and the “effect of interrupting the treatment regimen on healing” value (db/db mice; treatment removed between third and fourth week, weekly or twice weekly regimen) was “adversely affects the healing process”.
